Experimental data as given in patent US12065442B2, “Tropomyosin receptor kinase (TRK) degradation compounds and methods of use” (Cullgen (Shanghai), Inc., priority 2018, dated 2024).

These molecules were tested on KM12 cells (assay: Cell viability assay (CellTiter-Glo) in KM12 cells). Details: Homo sapiens, 72 h; Table 2; KM12 cell viability, CellTiter-Glo, 3 days; read-out: IC50.
Assay type: cell-based

How did the IC50 turn out when Cc1ncsc1-c1ccc(CNC(=O)[C@@H]2C[C@@H](O)CN2C(=O)[C@@H](NC(=O)CCCCCCCC(=O)N2CCN(c3ccc(C(=O)Nc4n[nH]c5ccc(Cc6cc(F)cc(F)c6)cc45)c(NC4CCOCC4)c3)CC2)C(C)(C)C)cc1 [CPD-037, (2S,4R)-1-((S)-2-(9-(4-(4-((5-(3,5-Difluorobenzyl)-1H-indazol-3-yl)carbamoyl)-3-((tetrahydro-2H-pyran-4-yl)amino)phenyl)piperazin-1-yl)-9-oxononanamido)-3,3-dimethylbutanoyl)-4-hydroxy-N-(4-(4-methylthiazol-5-yl)benzyl)pyrrolidine-2-carboxamide] was run?
The IC50 was 150 nM.

For Cc1ncsc1-c1ccc(CNC(=O)[C@@H]2C[C@@H](O)CN2C(=O)[C@@H](NC(=O)CCOCCOCCC(=O)N2CCN(c3ccc(C(=O)Nc4n[nH]c5ccc(Cc6cc(F)cc(F)c6)cc45)c(NC4CCOCC4)c3)CC2)C(C)(C)C)cc1 [CPD-038, (2S,4R)-1-((S)-2-(3-(2-(3-(4-(4-((5-(3,5-Difluorobenzyl)-1H-indazol-3-yl)carbamoyl)-3-((tetrahydro-2H-pyran-4-yl)amino)phenyl)piperazin-1-yl)-3-oxopropoxy)ethoxy)propanamido)-3,3-dimethylbutanoyl)-4-hydroxy-N-(4-(4-methylthiazol-5-yl)benzyl)pyrrolidine-2-carboxamide], which IC50 is on record?
The IC50 was 359 nM.

How did the IC50 turn out when Cc1ncsc1-c1ccc(CNC(=O)[C@@H]2C[C@@H](O)CN2C(=O)[C@@H](NC(=O)CCOCCOCCOCCC(=O)N2CCN(c3ccc(C(=O)Nc4n[nH]c5ccc(Cc6cc(F)cc(F)c6)cc45)c(NC4CCOCC4)c3)CC2)C(C)(C)C)cc1 [CPD-039, (2S,4R)-1-((S)-2-(tert-butyl)-16-(4-(4-((5-(3,5-Difluorobenzyl)-1H-indazol-3-yl)carbamoyl)-3-((tetrahydro-2H-pyran-4-yl)amino)phenyl)piperazin-1-yl)-4,16-dioxo-7,10,13-trioxa-3-azahexadecanoyl)-4-hydroxy-N-(4-(4-methylthiazol-5-yl)benzyl)pyrrolidine-2-carboxamide] was run?
The IC50 was 222 nM.

For Cc1ncsc1-c1ccc(CNC(=O)[C@@H]2C[C@@H](O)CN2C(=O)[C@@H](NC(=O)COCCOCCOCCOCCOCC(=O)N2CCN(c3ccc(C(=O)Nc4n[nH]c5ccc(Cc6cc(F)cc(F)c6)cc45)c(NC4CCOCC4)c3)CC2)C(C)(C)C)cc1 [CPD-040, (2S,4R)-1-((S)-2-(tert-butyl)-20-(4-(4-((5-(3,5-Difluorobenzyl)-1H-indazol-3-yl)carbamoyl)-3-((tetrahydro-2H-pyran-4-yl)amino)phenyl)piperazin-1-yl)-4,20-dioxo-6,9,12,15,18-pentaoxa-3-azaicosanoyl)-4-hydroxy-N-(4-(4-methylthiazol-5-yl)benzyl)pyrrolidine-2-carboxamide], which IC50 is on record?
The IC50 was 600 nM.

Cc1ncsc1-c1ccc(CNC(=O)[C@@H]2C[C@@H](O)CN2C(=O)[C@@H](NC(=O)CCOCCOCCOCCOCCC(=O)N2CCN(c3ccc(C(=O)Nc4n[nH]c5ccc(Cc6cc(F)cc(F)c6)cc45)c(NC4CCOCC4)c3)CC2)C(C)(C)C)cc1 [CPD-041, (2S,4R)-1-((S)-2-(tert-butyl)-19-(4-(4-((5-(3,5-Difluorobenzyl)-1H-indazol-3-yl)carbamoyl)-3-((tetrahydro-2H-pyran-4-yl)amino)phenyl)piperazin-1-yl)-4,19-dioxo-7,10,13,16-tetraoxa-3-azanonadecanoyl)-4-hydroxy-N-(4-(4-methylthiazol-5-yl)benzyl)pyrrolidine-2-carboxamide] was tested. Which IC50 did it give?
Its IC50 is 400 nM.

Cc1ncsc1-c1ccc(CNC(=O)[C@@H]2C[C@@H](O)CN2C(=O)[C@@H](NC(=O)COCCOCC(=O)N2CCN(c3ccc(C(=O)Nc4n[nH]c5ccc(Cc6cc(F)cc(F)c6)cc45)c(NC4CCOCC4)c3)CC2)C(C)(C)C)cc1 [CPD-042, (2S,4R)-1-((S)-2-(2-(2-(2-(4-(4-((5-(3,5-Difluorobenzyl)-1H-indazol-3-yl)carbamoyl)-3-((tetrahydro-2H-pyran-4-yl)amino)phenyl)piperazin-1-yl)-2-oxoethoxy)ethoxy)acetamido)-3,3-dimethylbutanoyl)-4-hydroxy-N-(4-(4-methylthiazol-5-yl)benzyl)pyrrolidine-2-carboxamide] was tested. Which IC50 did it give?
Its IC50 is > 1000 nM.

For Cc1ncsc1-c1ccc(CNC(=O)[C@@H]2C[C@@H](O)CN2C(=O)[C@@H](NC(=O)CCOCCOCCOCCOCCOCCC(=O)N2CCN(c3ccc(C(=O)Nc4n[nH]c5ccc(Cc6cc(F)cc(F)c6)cc45)c(NC4CCOCC4)c3)CC2)C(C)(C)C)cc1 [CPD-043, (2S,4R)-1-((S)-2-(tert-butyl)-22-(4-(4-((5-(3,5-Difluorobenzyl)-1H-indazol-3-yl)carbamoyl)-3-((tetrahydro-2H-pyran-4-yl)amino)phenyl)piperazin-1-yl)-4,22-dioxo-7,10,13,16,19-pentaoxa-3-azadocosanoyl)-4-hydroxy-N-(4-(4-methylthiazol-5-yl)benzyl)pyrrolidine-2-carboxamide], which IC50 is on record?
Its IC50 is > 1000 nM.

For Cc1ncsc1-c1ccc(CNC(=O)[C@@H]2C[C@@H](O)CN2C(=O)[C@@H](NC(=O)CCCCC(=O)N2CCN(c3ccc(C(=O)Nc4n[nH]c5ccc(Cc6cc(F)cc(F)c6)cc45)c(NC4CCOCC4)c3)CC2)C(C)(C)C)cc1 [CPD-044, (2S,4R)-1-((S)-2-(6-(4-(4-((5-(3,5-difluorobenzyl)-1H-indazol-3-yl)carbamoyl)-3-((tetrahydro-2H-pyran-4-yl)amino)phenyl)piperazin-1-yl)-6-oxohexanamido)-3,3-dimethylbutanoyl)-4-hydroxy-N-(4-(4-methylthiazol-5-yl)benzyl)pyrrolidine-2-carboxamide], which IC50 is on record?
The IC50 was 73 nM.

Cc1ncsc1-c1ccc(CNC(=O)[C@@H]2C[C@@H](O)CN2C(=O)[C@@H](NC(=O)COCC(=O)N2CCN(c3ccc(C(=O)Nc4n[nH]c5ccc(Cc6cc(F)cc(F)c6)cc45)c(NC4CCOCC4)c3)CC2)C(C)(C)C)cc1 [CPD-045, (2S,4R)-1-((S)-2-(2-(2-(4-(4-((5-(3,5-Difluorobenzyl)-1H-indazol-3-yl)carbamoyl)-3-((tetrahydro-2H-pyran-4-yl)amino)phenyl)piperazin-1-yl)-2-oxoethoxy)acetamido)-3,3-dimethylbutanoyl)-4-hydroxy-N-(4-(4-methylthiazol-5-yl)benzyl)pyrrolidine-2-carboxamide] was tested. Which IC50 did it give?
The IC50 was > 1000 nM.

With Cc1ncsc1-c1ccc(CNC(=O)[C@@H]2C[C@@H](O)CN2C(=O)[C@@H](NC(=O)CCC(=O)N2CCN(c3ccc(C(=O)Nc4n[nH]c5ccc(Cc6cc(F)cc(F)c6)cc45)c(NC4CCOCC4)c3)CC2)C(C)(C)C)cc1 [CPD-046, (2S,4R)-1-((S)-2-(4-(4-(4-((5-(3,5-Difluorobenzyl)-1H-indazol-3-yl)carbamoyl)-3-((tetrahydro-2H-pyran-4-yl)amino)phenyl)piperazin-1-yl)-4-oxobutanamido)-3,3-dimethylbutanoyl)-4-hydroxy-N-(4-(4-methylthiazol-5-yl)benzyl)pyrrolidine-2-carboxamide] as the molecule, how does the IC50 read?
Its IC50 is 700 nM.

With Cc1ncsc1-c1ccc(CNC(=O)[C@@H]2C[C@@H](O)CN2C(=O)[C@@H](NC(=O)CCCCCC(=O)N2CCN(c3ccc(C(=O)Nc4n[nH]c5ccc(Cc6cc(F)cc(F)c6)cc45)c(NC4CCOCC4)c3)CC2)C(C)(C)C)cc1 [CPD-047, (2S,4R)-1-((S)-2-(7-(4-(4-((5-(3,5-difluorobenzyl)-1H-indazol-3-yl)carbamoyl)-3-((tetrahydro-2H-pyran-4-yl)amino)phenyl)piperazin-1-yl)-7-oxoheptanamido)-3,3-dimethylbutanoyl)-4-hydroxy-N-(4-(4-methylthiazol-5-yl)benzyl)pyrrolidine-2-carboxamide] as the molecule, how does the IC50 read?
The IC50 was 94 nM.
